Structures can show the parent of a compound that is named as a salt.
Columns and labels:
G. vaginalis = assay: Minimum inhibitory concentration (MIC) against G. vaginalis, two-fold dilutions in 96-well plates; type: cell-based; details: Gardnerella vaginalis; after 48 hours; tested 0.0625 to 16 mg/mL; FIG. 1A; read-out: concentration showing significant inhibition of growth of G. vaginalis (MIC)
Method: Formulations of creatinine hydrochloride were prepared in different concentrations to evaluate the effect on the inhibition of growth of G. vaginalis. Creatinine hydrochloride was used in varying concentrations ranging from 0.0625 mg/mL to 16 mg/mL. The minimum inhibitory concentration (MIC) for each solution was determined against G. vaginalis using two-fold dilutions and flat-bottom 96-well plates.

M. mulieris = assay: Minimum inhibitory concentration (MIC) against M. mulieris, two-fold dilutions in 96-well plates; type: cell-based, Mobiluncus mulieris; details: FIG. 2A
Method: The minimum inhibitory concentration (MIC) for each solution was determined against M. mulieris using two-fold dilutions and flat-bottom 96-well plates. […] Methods for Antimicrobial Susceptibility Testing of Anaerobic Bacteria; Approved Standard—6th Edition).

MIC (G. vaginalis): 4000 µg/mL | MIC (M. mulieris; Mobiluncus mulieris, after 48 hours, tested 0.0625 to 16 mg/mL, read-out: concentration that inhibited growth of M. mulieris (MIC)): 4000 µg/mL
SMILES: CN1CC(=O)NC1=N [creatinine hydrochloride]
concentration that still inhibited growth of M. mulieris (M. mulieris; after 72 hours): 8 mg/mL

Reference: patent US12109195B2, “Compositions and methods for treatment of vaginal infections” (priority 2020, dated 2024)
